One assay deals with acne vulgaris. Nature of the assay: Topical treatment of acne in human volunteers. In kind it is in vivo. The settings on record: for Recovery Time: topical cream, per subject. On the procedure:
In this example, human subjects were successfully treated for acne by topical administration of a cream containing the compound JC15 or JC9, which were shown in the previous examples to ameliorate the effects of the androgen receptor-activated pathway, specifically by inducing degradation of the androgen receptor. A basic carrier formulation was prepared by mixing two solutions: (1) a water-based solution containing aristoflex avc, Osmocide, Tween 20, and water; and (2) an oil-based solution containing isopropyl myristate, coconut dienthanolamine, ethylparaben, isobutylparaben, methylparaben, and propylparaben. The test compounds (JC15 or JC9) were added to the cream to a final concentration of 1 to 2.5 micromolar, as needed.
Male and female human volunteers ranging in age from 15 years to 52 years were treated by topical application of the test compounds to the acne-affected skin. […] The results are given in Table 1, and a representative result (photo pictures) from one volunteer is depicted in FIG. 7.

The test system of another assay is sebaceous glands. Description: Reduction of sebaceous glands in Fuzzy rats by topical cream. In kind it is in vivo. Particulars: once daily; for size of the sebaceous glandular lobe and duct: male Fuzzy rats, 8 weeks. The source says:
In this example, the test compounds JC15 and JC9, which were shown in the previous examples to ameliorate the effects of the androgen receptor-activated pathway, specifically by inducing degradation of the androgen receptor, and to be effective in treating acne in human subjects, were used to reduce sebaceous glandular lobe size in an animal model. Effective reduction of sebaceous glands by topical treatment may be useful in treating skin conditions such as acne. Fuzzy rats were used in this animal model as described in Ye et al. (1997) Skin Pharmacol., 10:10288-10297, which is incorporated by reference in its entirety herein.
Topical creams were prepared as described in EXAMPLE 6. The test creams contained JC9 ([…]) or JC15 (1 micromolar); a control cream with only vehicle added was also prepared. The test or control creams were applied using a cotton swab to the dorsal skin of the animal, once daily, over a period of 8 weeks. Animals were then sacrificed and skin samples collected for microscopic examination. Commercial hair remover was applied to the dorsal surface of the euthanized animals. After 5 minutes, the hair remover and hairs were removed with a tissue. The area was thoroughly cleaned with 75% isopropyl alcohol. A 4-millimeter skin punch was used to remove skin tissue samples, which were incubated for 2 to 3 hours in a ethylenediaminetetraacetate (EDTA, 17 millimolar), sodium phosphate (0.1 molar, pH 7.4) solution at 37 degrees Celsius. The epidermis was carefully separated from the dermis and stored in 10% phosphate-buffered formalin. Prior to microscopic examination, the samples were mounted on glass slides. Areas of well-preserved glandular lobules were selected for microscopic imaging. Edges of the glandular lobes were traced and the areas of the traced lobes obtained with Image J software (National Institutes of Health).

A further assay concerns retinoid X receptor. Nature of the assay: Western blot of LNCaP cell lysates, RXR. In kind it is cell-based, human. Particulars: 1 or 2 micromolar, 24 hours, presence or absence of DHT. On the procedure:
Human prostate cancer LNCaP cells and T47D cells were plated at a density of 7×10^5 cells per 60 millimeter tissue culture dish in […] (RPMI) medium containing 10% FBS. The medium was changed to RPMI or DME medium containing 10% charcoal-stripped serum 24 hours later to deplete cellular androgens or estrogens. After another 24 hours, treatment with the test compounds began. The test dose of JC15 was 1 or 2 micromolar and the test does of JC9 was 1, 5 and 10 micromolar. LNCap cells also received dihydrotestosterone (DHT) (3 nanomolar). Control cells received a corresponding amount of the vehicle, dimethylsulfoxide (DMSO) (<0.04%) for an equivalent exposure time. Cells were incubated with JC15 for 24 or 48 hours, and were lysed in 250 microliters of 1×SDS/PAGE loading buffer. Approximately 40 micrograms of total cellular protein was loaded in each lane of a pre-cast gel (NuPAGE, Invitrogen). Protein separation and transfer were performed following the manufacturer's instructions.
For the prostate cell lysates, androgen receptor (AR) protein was visualized by incubating the resultant membranes with an anti-AR antibody (BD-PharMingen), followed by chemiluminescence detection (ECL Plus, Amersham). […] The resultant protein signals were quantified using densitometry and NIH ImageJ software.
In general terms: In western blotting, separated proteins are transferred to a membrane and probed.

Values joined by “and” are separate entries in the source; they are usually repeats but may differ in a detail not shown here. Equal values may be shown once. “Also recorded” adds a separate entry of the source.

Turning to `COc1ccc(C=CC(=O)C=C(O)C=Cc2ccc(OC)c(OC)c2)cc1OC` [JC9, 5-hydroxy-1,7-bis(3,4-dimethoxyphenyl)-1,4,6-heptatrien-3-one], the “Recovery Time” value is listed as 1 week with acne vulgaris (1 micromolar, four times a day); 2 weeks in the assay on acne vulgaris (1 micromolar, twice a day); 1 week in the assay on acne vulgaris (2.5 micromolar, twice a day). Besides, in the assay on sebaceous glands (JC9 25 micromolar cream, topical), the “time within which bands of sebaceous glands were reduced” value is on record as 4-5 weeks. Moreover, the “size of the sebaceous glandular lobe and duct” value in the assay on sebaceous glands (JC9 25 micromolar cream) was “reduction in the size of the sebaceous glandular lobe and duct; also recorded: significantly reduced the size of lobe and ducts of sebaceous glands”.

As for `CCOC(=O)CCC(C(=O)C=Cc1ccc(O)c(OC)c1)C(=O)C=Cc1ccc(O)c(OC)c1` (stereo not shown) [JC15, 7-(4-hydroxy-3-methoxyphenyl)-4-[3-(4-hydroxy-3-methoxyphenyl)acryloyl]-5-oxo-hept-6-enoic acid ethyl ester], the “cellular concentration of retinoid X receptor” value in the assay with retinoid X receptor is reported as “did not substantially affect”. Besides, the “skin condition of forehead (photographs)” value in the assay on acne vulgaris (JC15 1 micromolar in carrier base, acne-affected volunteer, one month topical treatment) is “visible improvement to skin condition”. The “Recovery Time” value with acne vulgaris (1 micromolar, as often as needed, listed as ASCJ15) is 1 week weeks (2×) and 2 weeks; in the assay with acne vulgaris (1 micromolar, twice a day, listed as ASCJ15), 2 weeks (2×) and 1 week weeks. For the same compound, in the assay with sebaceous glands (JC15 1 micromolar cream), the “size of the sebaceous glandular lobe and duct” value is “reduction in the size of the sebaceous glandular lobe and duct; also recorded: approximately equivalent to the decrease caused by castration”.

These data come from patent US20060084704A1, “Methods and compositions for enhancing degradation of nuclear receptor transcription factors and uses thereof” (priority 2004, published 2006).
